Here are results for eleven molecules from patent US20260226048A1, “MULTI-CYCLIC IRAK AND FLT3 INHIBITING COMPOUNDS AND USES THEREOF” (CHILDREN'S HOSPITAL MEDICAL CENTER, priority 2023, published 2026).

For experiment [1], the target named is T1, IRAK4 (Homo sapiens, UniProt Q9NWZ3).
T1 sequence (Q9NWZ3 1-460): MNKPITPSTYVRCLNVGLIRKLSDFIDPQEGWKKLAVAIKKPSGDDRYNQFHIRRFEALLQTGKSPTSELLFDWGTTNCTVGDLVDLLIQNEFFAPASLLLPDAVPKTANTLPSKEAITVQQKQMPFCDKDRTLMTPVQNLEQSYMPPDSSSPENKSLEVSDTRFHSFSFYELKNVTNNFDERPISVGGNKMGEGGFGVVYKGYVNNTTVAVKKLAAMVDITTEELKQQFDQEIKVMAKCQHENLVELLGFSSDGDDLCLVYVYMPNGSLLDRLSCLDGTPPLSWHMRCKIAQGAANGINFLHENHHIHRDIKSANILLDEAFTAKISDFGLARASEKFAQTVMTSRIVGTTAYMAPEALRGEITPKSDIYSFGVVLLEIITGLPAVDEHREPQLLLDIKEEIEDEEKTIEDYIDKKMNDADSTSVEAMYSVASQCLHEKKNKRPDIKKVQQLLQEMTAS
Nature of the experiment: RBC HotSpot Kinase Assay, IRAK4. Type of experiment: biochemical. Further details: purchased Reaction Biology (RBC HotSpot). Particulars: isolated kinase enzyme, 33P-ATP, P81 filter-binding. The procedure, abridged:
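Radiometric filter-binding activity assay with isolated recombinant kinase (construct may be truncated or catalytic domain only) in 20 mM Hepes pH 7.5, 10 mM MgCl2, 1 mM EGTA, 2 mM DTT, 1% DMSO. Compound preincubated 20 min with kinase/substrate; reaction started with 33P-ATP, run 2 h at room temperature.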

The target in experiment [2] is T1, IRAK4. Nature of the experiment: Reaction Biology NanoBRET target engagement assay in HEK-293 cells, IRAK4. The experiment is classed as cell-based. The conditions noted are these: live HEK-293 cells transfected with Kinase-NanoLuc fusion, 1 hour. From the text:
The NanoBRET assay measures kinase engagement in real time in the context of the intact cell. Unlike the previously described biochemical kinase assay methodology in Example 33, the NanoBRET assay measures the binding and activity characteristics under equilibrium conditions using full-length kinases in the presence of cellular concentrations of ATP in live, uncompromised cells. As such, the assay provides a more relevant assessment of kinase potency and selectivity that would be expected to be observed in the native cellular environment, where potency is often considerably lower than that observed in the isolated biochemical assays (Vasta, J. D. et al., (2018) Cell Chem. Biol. 25, 206-214). The assay uses a Kinase-NanoLuc® fusion vector expressing a kinase protein to which a luciferase tag has been added, a cell-permeant fluorescent NanoBRET™ tracer, a NanoLuc® substrate, and an extracellular NanoLuc® inhibitor. Upon expression of the luciferase-tagged kinase, cells will produce a strong BRET signal only in the presence of the NanoBRET™ tracer. The extracellular NanoLuc® inhibitor ensures that the BRET signal observed emanates only from live cells. Because the BRET signal has tight distance constraints, addition of the test compound will decrease the BRET signal if the compound competes with the NanoBRET™ tracer for binding to the kinase domain. Under the appropriate tracer conditions established by the manufacturer, quantitative intracellular affinity and relative potency can then be determined using Mass Action model equations.
HEK-293 cells were purchased from ATCC. FuGENEHD Transfection Reagent, Kinase-NanoLucfusion plasmids, Transfection Carrier DNA, NanoBRETTracers and dilution buffer, NanoBRETNano-Glo Substrate, Extracellular NanoLucInhibitor were obtained from Promega.
Assays were conducted following Promega assay protocol with some modifications. HEK-293 Cells were transiently transfected with Kinase-NanoLucFusion Vector DNA by FuGENEHD Transfection Reagent. Testing compounds were delivered into 384 well assay plate by Echo 550 (LabcyteInc, Sunnyvale, CA). Transfected cells were harvested and mixed with NanoBRETTracer Reagent and dispensed into 384 well plates and incubated at 37° C. in 5% C02 cell culture incubator for 1 hour. The NanoBRETNano-Glo Substrate plus Extracellular NanoLucInhibitor Solution were added into the wells of the assay plate and incubated for 2-3 minutes at room temperature. The donor emission wavelength (460 nm) and acceptor emission wavelength (600 nm) were measured in the EnVisionplate reader. The BRET Ratios were calculated. BRET Ratio=[(Acceptor sample÷Donor sample)−(Acceptor no-tracer control÷Donor no-tracer control)]. The IC50 values of compounds were calculated with Prism GraphPad program.
• 1). Cultivate HEK-293 cells (70-80% confluence) appropriately prior to assay. Trypsinize and collect HEK-293 cells. • 2). Prepare lipid: DNA complexes as follows: • a. Prepare a 10 μg/ml solution of DNA in Opti-MEM without serum that consists of the following ratios of carrier DNA and DNA encoding NanoLuc® fusion. 9.0 μg/mL of Transfection Carrier DNA, 1.0 μg/mL of NanoLuc fusion vector DNA and 1 mL of Opti-MEM without phenol red. Mix thoroughly. • b. Add 30 μl of FuGENE HD Transfection Reagent into each milliliter of DNA mixture to form lipid: DNA complex. • c. Mix by inversion 10 times. • d. Incubate at ambient temperature for 20 minutes to allow complexes to form. • 3). In a sterile, conical tube, mix 1 part of lipid:DNA complex with 20 parts of HEK-293 cells in suspension. Mix gently by inversion 5 times. • 4). Dispense cells+lipid:DNA complex into a sterile tissue culture dish and incubate for 22-24 hours.
Each test compound is delivered from the compound source plate to the wells of 384-well white NBS plate by Echo 550.
3. Preparation of Cells with NanoBRET™ Tracer Reagent • 1). […]
A general note: In BRET a luciferase serves as donor, and the signal depends on an acceptor being close.

Another experiment relates to THP1 cells (FLT3 WT). Description: Combination drug screening with venetoclax in THP1 cells (Cell Titre Glo, 10 × 10). Particulars: for Excess HSA (sum excess HSA score, combination with venetoclax): 10 × 10 dataset, Cell Titre Glo at 48 hours, optimal of 4 dose combinations, negative = synergy; for Concentration needed to decrease the 312.5 nM Venetoclax response to <20%: Cell Titer Glo at 48 hours. Type of experiment: cell-based. As for the experimental part:
These assays were performed using the Cell Titre Glo assay, measured at 48 hours.
A smaller concentration indicates higher potency to synergize with Venetoclax.

Broadly, the IC50 is the point on the concentration scale where inhibition reaches its midpoint. High values mean weaker potency in that assay, low ones greater potency in that assay.

With `CC(O)(c1ccc2ncc(-c3ccnc(N[C@@H]4CCCNC4)n3)n2c1)C(F)(F)F` (single isomer, unassigned) [Compound 22a], the IC50 was 3 nM at IRAK4 [1] and below 0.5 nM at IRAK4 [2].
In the case of `CC(O)(c1ccc2ncc(-c3ccnc(N[C@@H]4CCCNC4)n3)n2c1)C(F)(F)F` (single isomer, unassigned) [Compound 23a], the results for the IC50 on IRAK4 [1] and at IRAK4 [2] were 0.8 nM and below 0.5 nM, respectively.
`CC(O)(c1ccc2ncc(-c3ccnc(N[C@H]4CNCC[C@@H]4F)n3)n2c1)C(F)(F)F` (single isomer, unassigned) [Compound 25a] returned an IC50 on IRAK4 [1] of 2 nM. Further, in the experiment on THP1 cells (FLT3 WT), the “Excess HSA (sum excess HSA score, combination with venetoclax)” value (shortened to “Excess HSA”) is −1386 and the “Concentration needed to decrease the 312.5 nM Venetoclax response to <20%” value is 1250 nM. Further, the IC50 against IRAK4 [2] is 2 nM.
`CC(O)(c1ccc2ncc(-c3cncc(N[C@@H]4CCCNC4)n3)n2c1)C(F)(F)F` (single isomer, unassigned) [Compound 28a]: the IC50 on IRAK4 [1] was 3 nM; on IRAK4 [2], below 0.5 nM.
On to `CC(O)(c1ccc2ncc(-c3cncc(N[C@H]4CNCC[C@@H]4F)n3)n2c1)C(F)(F)F` (single isomer, unassigned) [Compound 31a], for which the values for the half-inhibitory concentration (IC50) at IRAK4 [1] and against IRAK4 [2] were 2 nM and below 0.5 nM, respectively.
As for `COc1cc2ncc(-c3nc(N[C@H]4CNCC[C@@H]4F)ncc3F)n2nc1C1CC1` [Compound 1a, 4-(6-cyclopropyl-7-methoxyimidazo[1,2-b]pyridazin-3-yl)-5-fluoro-N-((3S,4S)-4-fluoropiperidin-3-yl)pyrimidin-2-amine], the values for the IC50 on IRAK4 [1] and at IRAK4 [2] were 0.9 nM and below 0.5 nM, respectively. Further, the “Excess HSA” value in the experiment with THP1 cells (FLT3 WT) is on record as −696.6. Moreover, the “Concentration needed to decrease the 312.5 nM Venetoclax response to <20%” value in the experiment with THP1 cells (FLT3 WT) was found to be 2500 nM.
In the same order, the values of `FC(F)COc1cc2ncc(-c3ccnc(N[C@H]4CNCC[C@@H]4F)n3)n2nc1C1CC1` [Compound 4a, 4-(6-cyclopropyl-7-(2,2-difluoroethoxy)imidazo[1,2-b]pyridazin-3-yl)-N-((3 S,4S)-4-fluoropiperidin-3-yl)pyrimidin-2-amine] are 1 nM, 0.8 nM, −2433 and 2500 nM.
With `COc1cc2ncc(-c3nc(N[C@@H]4CCCNC4)ncc3F)n2nc1C1CC2(CCC2)C1` [Compound 59a, (R)-5-fluoro-4-(7-methoxy-6-(spiro[3.3]heptan-2-yl)imidazo[1,2-b]pyridazin-3-yl)-N-(piperidin-3-yl)pyrimidin-2-amine], the IC50 on IRAK4 [1] was found to be 3 nM. For the same molecule, in the experiment with THP1 cells (FLT3 WT), the “Excess HSA” value was −914.4 and the “Concentration needed to decrease the 312.5 nM Venetoclax response to <20%” value came to 5000 nM.
As for `COc1cc2ncc(-c3nc(N[C@H]4CNCC[C@@H]4F)ncc3F)n2nc1C1CC2(CCC2)C1` [Compound 60a, 5-fluoro-N-((3S,4S)-4-fluoropiperidin-3-yl)-4-(7-methoxy-6-(spiro[3.3]heptan-2-yl)imidazo[1,2-b]pyridazin-3-yl)pyrimidin-2-amine], the IC50 on IRAK4 [1] is 8 nM. For the same molecule, in the experiment with THP1 cells (FLT3 WT), the “Excess HSA” value was −1548 and the “Concentration needed to decrease the 312.5 nM Venetoclax response to <20%” value turned out to be 5000 nM.
With `COc1cc2ncc(-c3nc(N[C@H]4CNC[C@@H]4F)ncc3F)n2nc1N1CCCS1(=O)=O` [Compound 111a, 2-(3-(5-fluoro-2-(((3S,4S)-4-fluoropyrrolidin-3-yl)amino)pyrimidin-4-yl)-7-methoxyimidazo[1,2-b]pyridazin-6-yl)isothiazolidine 1,1-dioxide], the IC50 on IRAK4 [1] is 3 nM; against IRAK4 [2], 34 nM.
In the same order, the values of `COc1cc2ncc(-c3nc(N[C@H]4CNCC[C@@H]4F)ncc3F)n2nc1N1CCCS1(=O)=O` [Compound 112a, 2-(3-(5-fluoro-2-(((3S,4S)-4-fluoropiperidin-3-yl)amino)pyrimidin-4-yl)-7-methoxyimidazo[1,2-b]pyridazin-6-yl)isothiazolidine 1,1-dioxide] are 3 nM and below 0.5 nM.
